Reference: patent US7709475B2, “Selective inhibitors against Cdk4 and Cdk6 having aminothiazole skeleton” (Banyu Pharmaceutical Co., Ltd., priority 2004, dated 2010)

Columns and labels:
[1] = biological target: T1, cyclin D2-Cdk6 (Homo sapiens, UniProt Q00534); assay: Cdk6 inhibitory action: cyclin D2-Cdk6 kinase activity; format: biochemical; conditions: for IC50: cyclin D2-Cdk6, 50 μM ATP; for K1/K6, selectivity for Cdk6 against Cdk1: IC50 of Cdk1 divided by IC50 of Cdk6; for K2/K6, selectivity for Cdk6 against Cdk2: IC50 of Cdk2 divided by IC50 of Cdk6; for K5/K6, selectivity for Cdk6 against Cdk5: IC50 of Cdk5 divided by IC50 of Cdk6; for K7/K6, selectivity for Cdk6 against Cdk7: IC50 of Cdk7 divided by IC50 of Cdk6; for K9/K6, selectivity for Cdk6 against Cdk9: IC50 of Cdk9 divided by IC50 of Cdk6
T1 construct: made in house; host or cells: insect cell Sf9 (baculovirus)
T1 sequence (Q00534 whole entry): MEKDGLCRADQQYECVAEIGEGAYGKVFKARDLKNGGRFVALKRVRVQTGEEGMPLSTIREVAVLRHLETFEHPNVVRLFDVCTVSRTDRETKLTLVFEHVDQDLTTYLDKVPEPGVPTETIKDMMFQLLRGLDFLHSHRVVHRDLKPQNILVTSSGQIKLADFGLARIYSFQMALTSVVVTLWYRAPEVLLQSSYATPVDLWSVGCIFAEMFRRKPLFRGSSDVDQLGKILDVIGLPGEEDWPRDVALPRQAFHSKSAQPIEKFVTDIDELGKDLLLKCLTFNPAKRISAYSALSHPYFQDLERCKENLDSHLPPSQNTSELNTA
T1 sequence (P30279 whole entry partner): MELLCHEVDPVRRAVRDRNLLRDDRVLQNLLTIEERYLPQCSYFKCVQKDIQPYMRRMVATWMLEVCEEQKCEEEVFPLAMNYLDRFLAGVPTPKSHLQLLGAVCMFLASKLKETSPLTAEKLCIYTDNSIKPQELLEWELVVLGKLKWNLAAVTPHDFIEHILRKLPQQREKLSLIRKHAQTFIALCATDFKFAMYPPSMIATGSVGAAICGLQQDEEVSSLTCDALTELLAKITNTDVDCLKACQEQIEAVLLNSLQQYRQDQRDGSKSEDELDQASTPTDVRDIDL
From the text: (§1) In the same manner as in the case of cyclin D2-Cdk4, the cDNA of Cdk6, and the cDNA of a fusion protein of cyclin D2, an activating factor of Cdk6, and glutathione S-transferase, were integrated into a baculovirus expression vector to prepare a recombinant baculovirus. This was co-transfected into insect cell Sf9 to express an active complex of the cyclin D2/glutathione S-transferase fusion protein-Cdk6 at a high level. The cells were recovered and solubilized, then the active complex was adsorbed onto Glutathione Sepharose, and a cyclin D2-Cdk6 complex was recovered using Precision Protease and was purified by HPLC column chromatography.
For the measurement of the activity of cyclin D2-Cdk6, a synthetic peptide (Arg-Pro-Pro-Thr-Leu-Ser-Pro-Ile-Pro-His-Ile-Pro-Arg) was used as the substrate.
(§2) The reaction was performed by partially modifying the method of Kitagawa et al. [Oncogene, Vol. 7, 1067-1074 (1992)]. The volume of the reaction solution was 21.1 μL, and to the R buffer, purified cyclin D2-Cdk6, 100 μM of the substrate peptide, 50 μM of non-labeled adenosine triphosphate (ATP), and 1 μCi of [γ-33P]-labeled ATP (2000 to 4000 Ci/mmole) were added to react at 30° C. for 40 minutes. Then, 10 μL of 350 mM phosphate buffer was added to the reaction system to terminate the reaction. The substrate peptide was adsorbed onto P81 paper filter on a 96-well plate, and then washed several times with 75 mM phosphate buffer. The radioactivity of the substrate peptide was measured with a liquid scintillation counter.
(§3) Addition of the compound according to the invention to the reaction system was carried out by first preparing a dilution series of solutions of the compound in dimethylsulfoxide (DMSO), and adding 1.1 μL of the dilutions. A control was provided by adding 1.1 μL of DMSO to the reaction system.
A representative compound of the compounds according to the invention was selected, and the IC50 value of this compound for the cyclin D2-Cdk6 activity was determined.

[2] = test system: JURKAT; assay: Inhibitory action against cell proliferation (WST-8), JURKAT; format: cell-based; conditions: Homo sapiens, 72 h, Jurkat cells, 3 days culture, read-out: concentration for 50% inhibition of cell proliferation (IC50), Jurkat
Description: Clinically isolated cancer cell lines EOL-1, KU812 and JURKAT were cultured in RPMI1640 medium containing 10% fetal calf serum at 37° C. in the presence of 5% CO2 under an atmosphere of saturated steam.
The inhibitory action against cell proliferation was measured by modifying the method of Skehan et al. [J. Natl. Cancer Inst., Vo. 82, 1107-1112 (1990)] according to the method of Ishiyama et al. [Talanta, Vol. 44, 1299 (1997)]. 100 μL each of cell culture medium containing 1×10^3 live cells of EOL-1, KU812 and JURKAT, respectively, was dispensed into each well of a 96-well cell culture dish, and the cells were cultured overnight. On the next day, a dilution series of solutions in DMSO was prepared from a DMSO solution of the compound of each Example. Then, the dilution series of solutions or DMSO only as a control for no drug addition were separately added to the medium for cell culture. Finally, 100 μL each of the culture medium containing either the dilution series of solutions of the compounds or DMSO only, was added to the cells which had been cultured in a 96-well dish, and then the cells were further cultured for 3 days.
After adding 20 μL each of WST-8 (Kishida Chemical Co., Ltd.) to each well and culturing the cells for another 2 hours, the optical densities at 450 nm were measured against a reference wavelength of 650 nm, and were compared with the control group. The results obtained by determining the concentrations for 50% inhibition of cell proliferation (IC50 (nM)) of the compounds of Examples are presented in the following Table 4.

[3] = biological target: T2, cyclin B-Cdk1 (Homo sapiens, UniProt P06493); assay: Cdk1 (Cdc2) inhibitory action: cyclin B-Cdk1 kinase activity; format: biochemical; conditions: cyclin B-Cdk1, 50 μM ATP
T2 construct: made in house; host or cells: insect cell Sf9 (baculovirus)
T2 sequence (P06493 whole entry): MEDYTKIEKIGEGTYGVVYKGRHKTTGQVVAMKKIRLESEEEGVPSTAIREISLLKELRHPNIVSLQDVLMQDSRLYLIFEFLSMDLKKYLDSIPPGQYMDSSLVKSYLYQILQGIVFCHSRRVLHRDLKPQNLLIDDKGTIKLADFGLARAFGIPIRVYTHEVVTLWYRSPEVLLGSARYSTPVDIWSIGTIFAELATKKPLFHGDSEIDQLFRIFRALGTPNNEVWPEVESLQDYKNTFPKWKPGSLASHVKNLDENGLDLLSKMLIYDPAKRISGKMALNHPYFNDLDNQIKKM
T2 sequence (P14635 whole entry partner): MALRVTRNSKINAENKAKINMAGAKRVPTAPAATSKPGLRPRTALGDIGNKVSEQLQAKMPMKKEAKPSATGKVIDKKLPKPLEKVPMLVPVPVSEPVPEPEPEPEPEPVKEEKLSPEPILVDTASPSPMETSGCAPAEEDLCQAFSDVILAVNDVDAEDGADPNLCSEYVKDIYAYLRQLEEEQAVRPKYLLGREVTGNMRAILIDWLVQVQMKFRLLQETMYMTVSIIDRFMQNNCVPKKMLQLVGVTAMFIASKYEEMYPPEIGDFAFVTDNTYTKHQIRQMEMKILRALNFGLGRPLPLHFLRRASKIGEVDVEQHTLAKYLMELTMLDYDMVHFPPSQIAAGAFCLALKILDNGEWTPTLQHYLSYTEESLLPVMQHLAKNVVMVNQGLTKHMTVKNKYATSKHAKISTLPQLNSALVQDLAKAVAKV
From the text: as §1, with “The” for “In the same manner as in the case of cyclin D2-Cdk4, the”, “Cdk1,” for “Cdk6,”, “B,” for “D2,”, “B/glutathione” for “D2/glutathione”, “protein-Cdk1” for “protein-Cdk6”, “B-Cdk1 active” for “D2-Cdk6”
For the measurement of the activity of cyclin B-Cdk1, a synthetic peptide (Ala-Lys-Ala-Lys-Lys-Thr-Pro-Lys-Lys-Ala-Lys-Lys) was used as the substrate.
as §2, with “cyclin B-Cdk1,” for “cyclin D2-Cdk6,”, “for 30” for “for 40”
as §3
A representative compound of the compounds according to the invention was selected, and the IC50 value of this compound for the cyclin B-Cdk1 activity was determined.

SMILES	IC50 [1] [µM]	IC50 [2] [µM]	IC50 [3] [µM]	K1/K6, selectivity for Cdk6 against Cdk1 [1]	K2/K6, selectivity for Cdk6 against Cdk2 [1]	K5/K6, selectivity for Cdk6 against Cdk5 [1]	K7/K6, selectivity for Cdk6 against Cdk7 [1]	K9/K6, selectivity for Cdk6 against Cdk9 [1]
CC(=O)N1CCN(Cc2ccc(Nc3ncc(-c4cc(C)nc(OC5CCCCC5)n4)s3)nc2)CC1 [Example 125, 5-[2-(cyclohexyloxy)-6-methyl-4-pyrimidinyl]-2-[5-(4-acetyl-1-piperazinyl)methyl-2-pyridyl]amino-1,3-thiazole]	0.017	0.26	1.2	–	–	–	–	–
Cc1cc(-c2cnc(Nc3cnc(CN4CCC(N(C)C)C4)cn3)s2)nc(OC2CCCCC2)n1 (centres unmarked) [Example 13, 5-[2-(cyclohexyloxy)-6-methyl-4-pyrimidinyl]-2-[5-(3-dimethylamino-1-pyrrolidinyl)methyl-2-pyrazinyl]amino-1,3-thiazole]	0.013	0.17	0.62	48	65	200	28	33
Cc1cc(-c2cnc(Nc3cnc(CN4CCN(C)CC4)cn3)s2)nc(OC2CCCCC2)n1 [Example 1, 5-[2-(cyclohexyloxy)-6-methyl-4-pyrimidinyl]-2-[5-(4-methyl-1-piperazinyl)methyl-2-pyrazinyl]amino-1,3-thiazole]	0.0078	0.23	0.6	77	218	385	68	321
Cc1cc(-c2cnc(Nc3ccc(CN4CCC[C@H]4CO)cn3)s2)nc(NC2CCCCC2)n1 [Example 137, (2S)-5-[2-(cyclohexylamino)-6-methyl-4-pyrimidinyl]-2-[5-(2-hydroxymethyl-1-pyrrolidinyl)methyl-2-pyridyl]amino-1,3-thiazole]	0.021	0.25	1.2	57	214	143	57	52
Cc1cc(-c2cnc(Nc3cnc(CN4CCN(C)CC4)cn3)s2)nc(Sc2ccccc2Cl)n1 [Example 109, 5-[2-(2-chlorophenylthio)-6-methyl-4-pyrimidinyl]-2-[5-(4-methyl-1-piperazinyl)methyl-2-pyrazinyl]amino-1,3-thiazole]	0.018	0.11	0.43	–	–	–	–	–

Second part, the compound after the results:

IC50 [1] [µM]	IC50 [2] [µM]	IC50 [3] [µM]	K1/K6, selectivity for Cdk6 against Cdk1 [1]	K2/K6, selectivity for Cdk6 against Cdk2 [1]	K5/K6, selectivity for Cdk6 against Cdk5 [1]	K7/K6, selectivity for Cdk6 against Cdk7 [1]	K9/K6, selectivity for Cdk6 against Cdk9 [1]	SMILES
0.0093	0.14	0.56	–	–	–	–	–	Cc1cc(-c2cnc(Nc3cnc(CNC(C)C)cn3)s2)nc(SC2CCCCC2)n1 [Example 96, 5-[2-(cyclohexylthio)-6-methyl-4-pyrimidinyl]-2-[5-(isopropylamino)methyl-2-pyrazinyl]amino-1,3-thiazole]
0.016	0.18	0.92	–	–	–	–	–	Cc1cc(-c2cnc(Nc3cnc(CN4CCC(N(C)C)C4)cn3)s2)nc(SC2CCCCC2)n1 (centres unmarked) [Example 94, 5-[2-(cyclohexylthio)-6-methyl-4-pyrimidinyl]-2-[5-(3-dimethylamino-1-pyrrolidinyl)methyl-2-pyrazinyl]amino-1,3-thiazole]
–	0.19	–	–	–	–	–	–	Cc1cc(-c2cnc(Nc3cnc(CNCCO)cn3)s2)nc(SC2CCCCC2)n1 [Example 99, 5-[2-(cyclohexylthio)-6-methyl-4-pyrimidinyl]-2-[5-(2-hydroxyethylamino)methyl-2-pyrazinyl]amino-1,3-thiazole]
0.0073	–	0.87	–	–	–	–	–	Cc1cc(-c2cnc(Nc3cnc(CN4CCCC4)cn3)s2)nc(SC2CCCCC2)n1 [Example 93, 5-[2-(cyclohexylthio)-6-methyl-4-pyrimidinyl]-2-[5-(1-pyrrolidinyl)methyl-2-pyrazinyl]amino-1,3-thiazole]
0.0051	–	0.75	–	–	–	–	–	Cc1cc(-c2cnc(Nc3cnc(CN4CCN(C)CC4)cn3)s2)nc(NC2CCCCC2)n1 [Example 55, 5-[2-(cyclohexylamino)-6-methyl-4-pyrimidinyl]-2-[5-(4-methyl-1-piperazinyl)methyl-2-pyrazinyl]amino-1,3-thiazole]
